Measurements published in patent US11690858B1, “Neuroprotective mixture for mitigating the harmful effects of ischemic stroke” (Tricerapro Holding, LLC, priority 2018, dated 2023).
“And” between values parts separate entries of the source, which are not always exact repeats. Equal entries are not always repeated.

Legend:
[1] = test system: rat model of ischemic stroke; test: Infarct volumes by treatment groups in a rat model of ischemic stroke; assay type: in vivo; parameters: unit not given here; conditions: for Infarct volume, Contra, Average / Infarct volume, Infarct, Average: average of 5 animals; for Infarct volume, Contra / Infarct volume, Infarct: individual animals; for Infarct volume, Contralateral / Infarct volume, Ipsilateral: rounded average
Excerpt: Additional studies using a validated rat model for ischemic stroke have also been conducted. These studies made comparisons in stroke volumes between five different treatment groups: a. Ischemic stroke model in aged rats; no reperfusion; no neuroprotection b. Ischemic stroke model in aged rats; no reperfusion; neuroprotection administered c. Ischemic stroke model in aged rats; reperfusion (tPA) given; no neuroprotection d. Ischemic model in young rats; no reperfusion; no neuroprotection e. Ischemic stroke model in young rats; reperfusion (tPA) given; no neuroprotection

[2] = test system: diffuse anoxia injury model in rats; conditions: cited from earlier work; for amount of neuronal injury: diffuse anoxia injury model in rats; for entry into the cerebrospinal fluid (CSF): rats
[3] = test system: fluid percussion model of head trauma; conditions: diffuse neuronal injury; cited from earlier work
[4] = test system: rat model of ischemic infarct; conditions: cited from earlier work

Molecule	Infarct volume, Contra, Average ([1]; aged rats, untreated aged 1.412)	Infarct volume, Infarct, Average ([1]; aged rats, untreated aged 12.918)	Infarct volume, Contra ([1]; aged rats)	Infarct volume, Infarct ([1]; aged rats)	Infarct volume, Contralateral ([1]; aged rats, untreated aged 1.4)	Infarct volume, Ipsilateral ([1]; aged rats, untreated aged 12.9)	Infarct volume, Contra, Average ([1]; young rats, untreated young 1.028)	Infarct volume, Infarct, Average ([1]; young rats, untreated young 8.012)	Infarct volume, Contra ([1]; young rats)	Infarct volume, Infarct ([1]; young rats)	Infarct volume, Contralateral ([1]; young rats, untreated young 1)	Infarct volume, Ipsilateral ([1]; young rats, untreated young 8)	amount of neuronal injury [2]	entry into the cerebrospinal fluid (CSF) [2]	extent of neuronal injury [3]	average size of infarcts ([4]; intraperitoneal injection, rat model of ischemia, reduced from 165 mm^3) [mm^3]	size of the measured infarct ([4]; intraperitoneal, 1 mmol/kg immediately after MCA occlusion)
tissue plasminogen activator [IPA]	1.086	8.868	1.29 and 0.87 and 0.81 and 1.39 and 1.07	9.58 and 7.26 and 7.85 and 8.95 and 10.7	1.1	8.9	1.178	4.208	1.07 and 1.28 and 1.66 and 0.52 and 1.36	3.75 and 4.35 and 3.64 and 4.1 and 5.2	1.2	4.2					
O=S(=O)([O-])[O-].[Mg+2] [magnesium sulfate]													alter the amount of neuronal injury	able to enter the cerebrospinal fluid (CSF)			
[Cl-].[Cl-].[Mg+2] [MgCl2, magnesium chloride]													alter the amount of neuronal injury	able to enter the cerebrospinal fluid (CSF)	limits the extent of neuronal injury	122	decreased the size of the measured infarct
